Laboratory results taken from PubChem BioAssay AID248 (DTP/NCI, 2004).
Where “and” joins values, the source holds several entries; their conditions need not be identical. Equal values may be shown once. Toxic doses and inconclusive results are not listed. Rule as the data show it: active = T/C of 150% or more; inactive = T/C below 125%.

Test system: L1210 leukemia ip in BDF1 mice, survival T/C
Assay: NCI In Vivo Anticancer Drug Screen. Data for tumor model L1210 Leukemia (intraperitoneal) in B6D2F1 (BDF1) mice
Conditions: endpoint: mean survival time, higher = longer survival
Outline: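 Each compound was tested against a transplantable tumor grown in mice. The endpoint was survival, with treated animals benchmarked against vehicle controls as a simple ratio.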

[1] = dose: 50.0 mg/kg/injection, schedule: Q01DX009 (ip), vehicle: saline with Tween-80
[2] = dose: 100.0 mg/kg/injection, schedule: Q01DX009 (ip), vehicle: saline with Tween-80
[3] = dose: 200.0 mg/kg/injection, schedule: Q01DX009 (ip), vehicle: saline with Tween-80
[4] = dose: 100.0 mg/kg/injection, schedule: Q04DX003 (ip), vehicle: Klucel (hydroxypropylcellulose) (HPC)
[5] = dose: 200.0 mg/kg/injection, schedule: Q04DX003 (ip), vehicle: Klucel (hydroxypropylcellulose) (HPC)
[6] = dose: 400.0 mg/kg/injection, schedule: Q04DX003 (ip), vehicle: Klucel (hydroxypropylcellulose) (HPC)
[7] = dose: 100.0 mg/kg/injection, schedule: Q04DX003 (ip), vehicle: saline with Tween-80
[8] = dose: 25.0 mg/kg/injection, schedule: Q04DX002 (ip), vehicle: Klucel (hydroxypropylcellulose) (HPC)
[9] = dose: 100.0 mg/kg/injection, schedule: Q04DX002 (ip), vehicle: Klucel (hydroxypropylcellulose) (HPC)
[10] = dose: 100.0 mg/kg/injection, schedule: Q01DX001 (ip), vehicle: carboxymethylcellulose (CMC)
[11] = dose: 100.0 mg/kg/injection, schedule: Q01DX009 (ip), vehicle: saline
[12] = dose: 100.0 mg/kg/injection, schedule: Q04DX003 (ip), vehicle: saline
[13] = dose: 200.0 mg/kg/injection, schedule: Q01DX009 (ip), vehicle: saline
[14] = dose: 200.0 mg/kg/injection, schedule: Q04DX003 (ip), vehicle: saline
[15] = dose: 400.0 mg/kg/injection, schedule: Q01DX009 (ip), vehicle: saline
[16] = dose: 400.0 mg/kg/injection, schedule: Q04DX003 (ip), vehicle: saline
[17] = dose: 100.0 mg/kg/injection, schedule: Q01DX009 (ip), vehicle: Klucel (hydroxypropylcellulose) (HPC)
[18] = dose: 200.0 mg/kg/injection, schedule: Q01DX009 (ip), vehicle: Klucel (hydroxypropylcellulose) (HPC)
[19] = dose: 100.0 mg/kg/injection, schedule: Q01DX001 (ip), vehicle: Klucel (hydroxypropylcellulose) (HPC)
[20] = dose: 200.0 mg/kg/injection, schedule: Q01DX001 (ip), vehicle: Klucel (hydroxypropylcellulose) (HPC)

Measured: T/C

CN(C)CCN(Cc1ccccc1)c1ccccn1
inactive: dose: 75.0 mg/kg/injection, schedule: Q01DX001 (ip), vehicle: carboxymethylcellulose (CMC) 100 % of control | dose: 150.0 mg/kg/injection, schedule: Q01DX001 (ip), vehicle: carboxymethylcellulose (CMC) 95 % of control

COC(=O)c1ccc(O)c([N+](=O)[O-])c1
inactive: [1] 103 % of control | [2] 94 % of control | [3] 89 % of control

CCCCCCCCCCCCCCCC(CCCC)c1ccccc1 (centres undefined)
inactive: dose: 100.0 mg/kg/injection, schedule: Q01DX001 (ip), vehicle: saline + alcohol 91 % of control | dose: 200.0 mg/kg/injection, schedule: Q01DX001 (ip), vehicle: saline + alcohol 100 % of control | dose: 400.0 mg/kg/injection, schedule: Q01DX001 (ip), vehicle: saline + alcohol 96 % of control

O=c1ccccn1Cc1ccccc1
inactive: [4] 106 % of control | [5] 117 % of control | [6] 98 % of control

CCCCOB=O
inactive: [2] 96 % of control | [3] 106 % of control | dose: 400.0 mg/kg/injection, schedule: Q01DX009 (ip), vehicle: saline with Tween-80 98 % of control

COC(=O)c1cc([N+](=O)[O-])cc([N+](=O)[O-])c1Br
inactive: dose: 3.0 mg/kg/injection, schedule: Q01DX009 (ip), vehicle: saline with Tween-80 100 % of control | dose: 6.0 mg/kg/injection, schedule: Q01DX009 (ip), vehicle: saline with Tween-80 98 % of control | dose: 12.0 mg/kg/injection, schedule: Q01DX009 (ip), vehicle: saline with Tween-80 98 % of control | dose: 12.5 mg/kg/injection, schedule: Q01DX009 (ip), vehicle: Klucel (hydroxypropylcellulose) (HPC) 96 % of control | dose: 12.5 mg/kg/injection, schedule: Q04DX003 (ip), vehicle: Klucel (hydroxypropylcellulose) (HPC) 100 % of control | dose: 25.0 mg/kg/injection, schedule: Q01DX009 (ip), vehicle: Klucel (hydroxypropylcellulose) (HPC) 89 % of control | dose: 25.0 mg/kg/injection, schedule: Q04DX003 (ip), vehicle: Klucel (hydroxypropylcellulose) (HPC) 94 % of control | dose: 50.0 mg/kg/injection, schedule: Q04DX003 (ip), vehicle: Klucel (hydroxypropylcellulose) (HPC) 94 % of control

CC1CCC(N=S=O)CC1 (centres undefined) (tested in a mixture with another compound)
inactive: dose: 18.75 mg/kg/injection, schedule: Q01DX009 (ip), vehicle: saline with Tween-80 102 % of control | dose: 25.6 mg/kg/injection, schedule: Q04DX002 (ip), vehicle: saline with Tween-80 102 % of control | dose: 37.5 mg/kg/injection, schedule: Q01DX009 (ip), vehicle: saline with Tween-80 102 % of control | dose: 64.0 mg/kg/injection, schedule: Q04DX002 (ip), vehicle: saline with Tween-80 109 % of control | dose: 75.0 mg/kg/injection, schedule: Q01DX009 (ip), vehicle: saline with Tween-80 111 % of control | [7] 101 % of control | dose: 160.0 mg/kg/injection, schedule: Q04DX002 (ip), vehicle: saline with Tween-80 95 % of control

Cc1ccc(Oc2cccc3c2CC[N+](C)(C)C3)cc1
inactive: dose: 6.25 mg/kg/injection, schedule: Q04DX002 (ip), vehicle: Klucel (hydroxypropylcellulose) (HPC) 96 % of control | dose: 12.5 mg/kg/injection, schedule: Q01DX001 (ip), vehicle: Klucel (hydroxypropylcellulose) (HPC) 97 % of control | dose: 12.5 mg/kg/injection, schedule: Q04DX002 (ip), vehicle: Klucel (hydroxypropylcellulose) (HPC) 96 % of control | [8] 100 % of control | dose: 50.0 mg/kg/injection, schedule: Q01DX001 (ip), vehicle: Klucel (hydroxypropylcellulose) (HPC) 94 % of control

OCC1(CO)COC2(CCCCC2)OC1
inactive: [4] 89 % of control | [5] 91 % of control | [6] 91 % of control

CC(C)C(=O)Nc1ccc(Cl)c(Cl)c1
inactive: dose: 222.0 mg/kg/injection, schedule: Q01DX Z (ip), vehicle: methylcellulose (MC) 111 % of control | dose: 333.0 mg/kg/injection, schedule: Q01DX Z (ip), vehicle: methylcellulose (MC) 98 % of control | dose: 500.0 mg/kg/injection, schedule: Q01DX Z (ip), vehicle: methylcellulose (MC) 102 % of control

Cc1ccc(NCC(=O)NN)cc1F
inactive: [8] 102 % of control | dose: 50.0 mg/kg/injection, schedule: Q04DX002 (ip), vehicle: Klucel (hydroxypropylcellulose) (HPC) 109 % of control | [9] 109 % of control and 112 % of control

CC12CC[C]([Hg][I])(CC1)C2(C)C
inactive: dose: 6.25 mg/kg/injection, schedule: Q01DX009 (ip), vehicle: saline with Tween-80 101 % of control and 103 % of control | dose: 12.5 mg/kg/injection, schedule: Q01DX009 (ip), vehicle: saline with Tween-80 95 % of control and 110 % of control | [1] 91 % of control
98 % of control and 211 % of control: dose: 25.0 mg/kg/injection, schedule: Q01DX009 (ip), vehicle: saline with Tween-80

CN(C)C(=S)N(C)C
inactive: dose: 50.0 mg/kg/injection, schedule: Q01DX001 (ip), vehicle: carboxymethylcellulose (CMC) 104 % of control | [10] 104 % of control | [11] 90 % of control | [12] 107 % of control | dose: 200.0 mg/kg/injection, schedule: Q01DX001 (ip), vehicle: carboxymethylcellulose (CMC) 101 % of control | [13] 96 % of control | [14] 107 % of control | dose: 400.0 mg/kg/injection, schedule: Q01DX001 (ip), vehicle: carboxymethylcellulose (CMC) 98 % of control | [15] 98 % of control | [16] 104 % of control

N#Cc1ccncc1
inactive: [17] 91 % of control | [18] 93 % of control | dose: 400.0 mg/kg/injection, schedule: Q01DX009 (ip), vehicle: Klucel (hydroxypropylcellulose) (HPC) 96 % of control

CN1CCN(CCN2CCN(CCCN3c4ccccc4Sc4ccc(Cl)cc43)CC2)C1=O
inactive: [10] 104 % of control

Cc1cc[c]([Hg][c]2ccc(C)cc2)cc1
inactive: [4] 97 % of control | [5] 103 % of control | [6] 94 % of control

O=C(Cc1c(F)c(F)c(F)c(F)c1F)Nc1ccc(-c2nc3ccccc3s2)cc1
inactive: [19] 87 % of control | [17] 115 % of control | [9] 104 % of control and 115 % of control | [4] 95 % of control | [20] 90 % of control | [18] 105 % of control | dose: 200.0 mg/kg/injection, schedule: Q04DX002 (ip), vehicle: Klucel (hydroxypropylcellulose) (HPC) 93 % of control and 95 % of control | [5] 97 % of control | dose: 400.0 mg/kg/injection, schedule: Q04DX002 (ip), vehicle: Klucel (hydroxypropylcellulose) (HPC) 95 % of control and 96 % of control | [6] 97 % of control

O=CNc1ccccc1.[Hg]
inactive: dose: 1.56 mg/kg/injection, schedule: Q04DX003 (ip), vehicle: saline with Tween-80 93 % of control | dose: 3.13 mg/kg/injection, schedule: Q04DX003 (ip), vehicle: saline with Tween-80 92 % of control | dose: 6.25 mg/kg/injection, schedule: Q04DX003 (ip), vehicle: saline with Tween-80 95 % of control and 112 % of control

CC1(C)C=Cc2ccccc21
inactive: [7] 104 % of control | dose: 200.0 mg/kg/injection, schedule: Q04DX003 (ip), vehicle: saline with Tween-80 96 % of control

CCOC(=O)CCCSCCCC(=O)OCC
inactive: [11] 111 % of control | [12] 111 % of control | [13] 101 % of control | [14] 98 % of control | [15] 110 % of control | [16] 88 % of control

CC(=O)Nc1ccc(/C=C/C(=O)c2ccc(C)cc2)cc1
inactive: [19] 101 % of control | [4] 104 % of control | [20] 100 % of control | [5] 103 % of control | dose: 400.0 mg/kg/injection, schedule: Q01DX001 (ip), vehicle: Klucel (hydroxypropylcellulose) (HPC) 103 % of control | [6] 94 % of control

O=C(COc1ccc(Cl)c(Cl)c1)Nc1ccc[n+](Cc2ccc(Cl)c(S(=O)(=O)F)c2)c1
inactive: [12] 106 % of control | [14] 94 % of control | [16] 105 % of control
